This is an account of results in paper PMC11423305, “Structure-Based Design of CBP/EP300 Degraders: When Cooperativity Overcomes Affinity” (JACS Au, 2024).

“Also recorded” adds a separate entry of the source.

One test concerns LNCaP cells. As to the kind of experiment: Cell viability (resazurin), LNCaP. It is filed as cell-based. The conditions noted are these: 3 day treatment. The protocol: normalized to DMSO treated lanes on the same membrane. (Several compounds were
measured at the same time, so DMSO treated lanes are replicated here between
Figure S5. Anti-proliferation in additional cell lines. LNCaP (A and C) and SH-SY5Y (B)
cell viability following 3 day compound treatment, and LNCaP following 6 day treatment
(D), determined using resazurin.
After 3 days of treatment, dCE-2 only has a mild effect on the proliferation of LNCaP and
SH-SY5Y cells (Figure S5A and B).
the new CBP/EP300 PROTACs CBPD -268 and CBPD-4092,3 which have enhanced anti-
proliferative activity in LNcaP cells relative to their parent inhibitor s. However, although
these PROTACs have effects at very low concentrations, their effect plateaus and a
substantial proportion of cells remain viable at high compound concentrations. Similarly,
degradation of CBP and EP300, the maximal effect of this PROTAC is also limited under
the conditions we used (Figure S5C). Through this work it was clear to us that these […]
proliferation. […]
concentrations of CRBN, as determined through competition with acetylated peptide […]
Fluorescence (excitation = 560 nm, emission = 590 nm) was measured using a
spectraMax M5 microplate reader (Molecular Devices) and cell viability was calculated […]
values were calculated as the concentration required to inhibit cell viability to 50 % […]
Background: The colour change of resazurin is a common sign of viable cells or microbes.

The target in a further test is T1, CBP (Homo sapiens, UniProt Q92793).
T1 construct: quantification of CBP and EP300 levels by Western blotting following 16 h treatment of LP1 cells; endogenous in cells; host or cells: LP1 cells
Briefly: Quantification of CBP degradation by Western blotting in LP1 cells. It is filed as cell-based. The protocol: LP1 cells were cultured in DMEM (Gibco, 41966-029) supplemented with 15 % FBS (Sigma, F9665); MM1S and LNCaP cells in RPMI 1640 ATCC modification (Gibco, […]
DMEM/F12 (Gibco, 11320074) supplemented with 1 % non-essential amino acids […]
additionally supplemented with 1 % penicillin/streptomycin (Gibco, 15070-063), and cells maintained in a humidified incubator with 5 % CO2 at 37 °C. The identity of all lines (except for MM1S which were recently purchased from ATCC) was authenticated by STR profiling (performed by Microsynth).
Quantification of CBP/EP300 degradation by Western blotting
LP1 cells plated on 6 well plates were treated with the stated compounds at a final concentration of 0.1 % DMSO for the stated time. Cells were harvested on ice, washed in PBS and lysed in RIPA buffer (50 mM tris pH 7.5, 2 mM EDTA, 150 mM NaCl, 0.5 % sodium deoxycholate, 1 % Triton X100) supplemented with cOmplete ™ protease inhibitor cocktail (Roche). Protein concentrations were determined using the Pierce ™ BCA Protein Assay Kit (Thermo Scientific, 23227) and equal amounts were separated on 4-12 % ExpressPl us™ PAGE gels (GenScript, M41215). Proteins were transferred to PVDF membranes, the membranes were blocked with 5 % milk (Merk Millipore, 115363) in PBS-T and proteins were stained with the following antibodies at 4 °C overnight: CBP […]
BRD4 (Bethyl Laboratories, A301-985A50, diluted 1:2000) and vinculin (Invitrogen, 42H89L44, diluted 1:1000). For detection, membranes were incubated for 1 h at room temperature with HRP-conjugated secondary antibodies (Southern Biotech, anti-rabbit […]
SuperSignal™ West Pico PLUS Chemiluminescent Substrate (Thermo Scientific, 34580) and the Vilber Fusion-FX7 imager. Bands were quantified using ImageJ software and protein levels normalized to protein from DMSO treated cells run on the same membrane. For dose response curves, data was fitted using a four -parameter dose-response curve in GraphPad Prism v. 9.5.1, where the top is fixed at 100 %. The DC50 was defined as the PROTAC concentration resulting in 50 % remaining protein. […]
A general note: In western blotting, separated proteins are transferred to a membrane and probed.

T1 sequence (Q92793 whole entry): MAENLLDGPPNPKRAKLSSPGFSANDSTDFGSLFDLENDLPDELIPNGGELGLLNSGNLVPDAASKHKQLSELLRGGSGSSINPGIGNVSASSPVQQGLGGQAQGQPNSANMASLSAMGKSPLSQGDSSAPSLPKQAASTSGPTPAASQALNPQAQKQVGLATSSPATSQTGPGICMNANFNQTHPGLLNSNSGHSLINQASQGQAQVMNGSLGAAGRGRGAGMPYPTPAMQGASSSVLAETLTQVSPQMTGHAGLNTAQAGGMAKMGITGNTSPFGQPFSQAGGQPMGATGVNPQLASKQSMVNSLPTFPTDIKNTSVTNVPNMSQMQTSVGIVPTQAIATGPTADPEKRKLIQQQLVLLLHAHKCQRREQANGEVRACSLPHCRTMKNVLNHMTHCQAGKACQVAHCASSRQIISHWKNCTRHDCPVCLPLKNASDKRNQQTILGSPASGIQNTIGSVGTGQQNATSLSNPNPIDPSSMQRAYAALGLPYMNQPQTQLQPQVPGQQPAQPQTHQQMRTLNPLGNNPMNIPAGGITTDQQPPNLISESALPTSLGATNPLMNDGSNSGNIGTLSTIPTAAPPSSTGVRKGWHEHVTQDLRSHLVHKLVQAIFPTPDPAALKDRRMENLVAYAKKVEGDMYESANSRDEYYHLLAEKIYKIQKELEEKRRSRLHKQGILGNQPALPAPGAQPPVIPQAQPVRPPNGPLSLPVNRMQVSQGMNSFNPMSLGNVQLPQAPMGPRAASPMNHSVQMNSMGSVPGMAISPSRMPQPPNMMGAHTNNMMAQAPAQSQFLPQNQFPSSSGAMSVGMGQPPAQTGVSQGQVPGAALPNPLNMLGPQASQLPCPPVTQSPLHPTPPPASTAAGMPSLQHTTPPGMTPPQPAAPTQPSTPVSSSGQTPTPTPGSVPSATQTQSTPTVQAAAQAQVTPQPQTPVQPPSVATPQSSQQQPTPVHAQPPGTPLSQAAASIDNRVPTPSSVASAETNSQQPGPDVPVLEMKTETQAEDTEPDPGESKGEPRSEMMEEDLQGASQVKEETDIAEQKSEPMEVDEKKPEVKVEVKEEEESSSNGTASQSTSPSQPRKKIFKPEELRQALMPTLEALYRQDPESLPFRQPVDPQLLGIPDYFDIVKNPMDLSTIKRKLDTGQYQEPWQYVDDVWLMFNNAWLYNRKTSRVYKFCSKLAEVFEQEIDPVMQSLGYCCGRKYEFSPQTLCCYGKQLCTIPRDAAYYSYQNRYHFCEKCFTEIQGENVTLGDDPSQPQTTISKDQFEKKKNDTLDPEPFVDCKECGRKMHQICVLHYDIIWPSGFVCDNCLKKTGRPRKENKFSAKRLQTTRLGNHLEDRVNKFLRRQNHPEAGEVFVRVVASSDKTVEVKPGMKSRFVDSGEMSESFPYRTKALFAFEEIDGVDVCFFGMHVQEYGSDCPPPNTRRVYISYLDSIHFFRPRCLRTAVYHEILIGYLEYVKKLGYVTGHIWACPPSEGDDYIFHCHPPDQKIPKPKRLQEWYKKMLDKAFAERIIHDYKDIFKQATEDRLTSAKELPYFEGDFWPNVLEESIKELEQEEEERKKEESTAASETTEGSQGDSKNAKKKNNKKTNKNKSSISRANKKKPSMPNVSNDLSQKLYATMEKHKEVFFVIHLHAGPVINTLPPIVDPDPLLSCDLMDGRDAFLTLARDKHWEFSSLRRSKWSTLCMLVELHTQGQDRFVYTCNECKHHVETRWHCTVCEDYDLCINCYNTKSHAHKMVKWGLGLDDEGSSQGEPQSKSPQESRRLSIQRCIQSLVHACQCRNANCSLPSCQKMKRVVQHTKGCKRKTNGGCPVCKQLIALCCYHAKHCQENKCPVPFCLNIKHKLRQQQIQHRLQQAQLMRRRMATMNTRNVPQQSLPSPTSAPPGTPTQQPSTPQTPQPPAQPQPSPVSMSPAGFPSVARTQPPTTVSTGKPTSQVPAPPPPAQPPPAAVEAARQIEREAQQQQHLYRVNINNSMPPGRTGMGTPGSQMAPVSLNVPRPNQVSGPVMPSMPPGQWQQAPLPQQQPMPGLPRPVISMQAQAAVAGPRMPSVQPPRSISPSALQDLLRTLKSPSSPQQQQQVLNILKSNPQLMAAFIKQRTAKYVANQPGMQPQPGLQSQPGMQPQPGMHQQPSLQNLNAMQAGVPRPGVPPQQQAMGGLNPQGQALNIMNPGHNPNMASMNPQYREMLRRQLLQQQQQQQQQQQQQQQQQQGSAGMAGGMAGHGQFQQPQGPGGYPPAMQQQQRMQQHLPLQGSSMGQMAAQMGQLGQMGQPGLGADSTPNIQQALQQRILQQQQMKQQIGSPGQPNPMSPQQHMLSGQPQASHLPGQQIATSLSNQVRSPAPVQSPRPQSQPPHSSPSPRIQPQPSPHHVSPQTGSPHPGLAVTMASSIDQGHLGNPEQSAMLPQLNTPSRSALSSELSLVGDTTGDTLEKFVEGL

On to `Cc1cc2c(NC(=O)c3cc(NC(=O)CCCCCCCCCCNc4cccc5c4C(=O)N(C4CCC(=O)NC4=O)C5=O)cc(-c4ccn(C)n4)c3)cccc2nn1` (stereo not drawn) [dCE-2], for which the “effect on proliferation of LNCaP cells” value with LNCaP cells is recorded as “mild effect; also recorded: limited effect”. At CBP (1 μM, time course), the “time at which CBP/EP300 degradation begins to occur” value is given as at most 2 h and the “time to reach maximal CBP/EP300 degradation (Dmax)” value lay within 16 to 24 h. Further, the “% remaining CBP” value on CBP (5 μM compound, 16 h, Western blot) worked out at 16%. For the same compound, on CBP (16 h), the DC50 was determined as 0.04 µM. Moreover, the Dmax on CBP (LP-1, 16 h) is above 85%.

The DC50 is the midpoint of the concentration-degradation curve. A word on the Dmax: it is the greatest extent of degradation seen. Read a low Dmax as a partial loss of target.
